According to patent publication US10034462B2, “Animal model of nash-induced hepatocellular carcinoma and methods for developing specific therapeutics” (THE REGENTS OF THE UNIVERSITY OF CALIFORNIA, priority 2015, dated 2018):

Test system: WT HcPC-transplanted MUP-uPA mice
Test: Effect of TNF antagonist on HFD-induced acceleration of tumor growth in HcPC-transplanted MUP-uPA mice
Assay type: in vivo, mouse
Settings: HFD for 5 months; 5 mg/kg i.p. three times a week during the last 7 weeks, vs vehicle
Source text: FIGS. 13A-13J are pictorial and graphical diagrams showing analyses of HcPC transplanted MUP-uPA mice. […] Data are means±S.D. (n=3 per group). […] FIGS. 13C-13F show no differences in the severity of NASH and TNF expression in the background liver of MUP-uPA mice transplanted with either WT and Tnfr1^−/− HcPC. Body weight (FIG. 13C), serum ALT (FIG. 13D), expression of TNF mRNA in non-tumor tissues (FIG. 13E), liver steatosis (FIG. 13F) and fibrosis (FIG. 13G) in MUP-uPA mice transplanted with either WT or Tnfr1^−/− HcPC and kept on LFD or HFD are shown (scale bar=100 μm). Data are expressed as means±S.D. (n=10-11 per group). *p<0.05. […] 5 mg/kg etanercept or vehicle control was i.p. injected three times a week during the last 7 weeks. Representative images of livers and maximal tumor sizes are shown. Data are expressed as means±S.E.M. (control, n=10; etanercept, n=12). […] HcPC-transplanted Tnfr1^−/−/MUP-uPA mice were divided into two groups that were fed with either LFD or HFD, and 5 months later tumorigenesis was assessed. Representative images of livers and maximal tumor sizes are shown. Data are expressed as means±S.E.M. (n=10 per group).
DEN (Sigma) was i.p. injected into male mice (25 mg/kg) on postnatal day 14. After 5 months, HcPCs were isolated as described and transplanted into 4 weeks old MUP-uPA (He et al., 2013). […]

## Etanercept
  HCC growth (maximal tumor size): significantly suppressed
